Measured values as given in patent US20020028851A1, “Guanylhydrazones and their use to treat inflammatory conditions” (priority 1994, published 2002).

How the values were obtained:
[1] = system: Nude mice (nu/nu), AtT-20 cells; assay: Tumor-associated cachexia model, urinary urea loss; assay type: in vivo; details: for URINARY UREA LOSS / URINARY UREA LOSS, Sum totals: 0.4 mg/Kg daily i.p.; for URINARY UREA LOSS, Sum totals: sum of listed days
Method: An animal model of tumor-associated protein catabolic illness (cachexia) was employed to directly test the efficacy of Compound No. 14 in reducing whole-body nitrogen losses. Tumors were induced in the appropriate groups by intramuscular inoculation with 15×10^6 AtT-20 cells; this model is known to cause a protein catabolic illness characterized by the consumption of normal quantities of food, but 20% net whole-body losses of protein within 14 days. Compound No. 14 was administered to the “treated” groups in a daily dose of 0.4 mg/Kg, intraperitoneal. Nude mice (nu/nu) were housed in metabolic cages (4 per cage) to facilitate collection of daily urine samples for 14 days. Food intake was measured daily. There were four groups of animals: 1) untreated, non-tumor bearing controls; 2) untreated, tumor-bearing; 3) treated, tumor-bearing, and 4) treated, non-tumor-bearing. Urine was collected and urinary urea losses quantified.

BALB/c mice = assay: LPS-induced lethality (endotoxic shock); assay type: in vivo
Method: Experiments were undertaken to evaluate the effects of Compound No. 14 in preventing the lethal toxicity of lipopolysaccharide (LPS). LPS was administered to induce 50% lethality within 72 hr in BALB/c mice (FIG. 10). BALB/c mice (19-21 g) were given LPS (E. coli 0111:B4; Sigma) in a dose of 13.75 mg/Kg by intraperitoneal injection (0.2 ml/mouse). Stock LPS solutions (10 mg/ml) were sonicated initially for 20 min, diluted in LPS-free water (1.375 mg/ml), then sonicated again for 10 min immediately prior to injection. Compound No. 14 (1 mg/Kg, i.p.) was administered 1.5 hr before LPS. Compound No. 14 injectate was free of LPS as measured by quantitative chromogenic Limulus amebocyte lysate test (BioWhittaker, Walkersville, Md.). Data points are from two groups consisting of 10 mice per group.
Data were subjected to statistical analysis using the z test for independent proportions. The difference bewteen control and Compound No. 14 is significant (one-tailed p value<0.05; z=1.95).

TNF = TNF production by LPS/γIFN-stimulated RAW 264.7 cells; assay type: cell-based, murine
Method: RAW 264.7 cells were plated in standard 6-well culture plates at a density of 10^6/well and allowed to adhere for from 2 hr to overnight. The medium was then replaced with medium containing the compound to be tested. One hour later, the medium was supplemented so as to contain 25 U/ml γIFN and 0.1 μg/ml LPS and the cultures incubated a further 18 hr. The medium was then collected, and cell debris removed by centrifugation. This conditioned supernatant was then assayed for the presence of TNF using standard methodologies: L929 cell cytotoxicity bioassay, radioimmunoassay or ELISA, and Western blotting with antibodies against murine TNF.

[2] = system: Endothelial Derived Relaxing Factor (EDRF) activity; assay: Acetylcholine-induced hypotensive (EDRF) response; assay type: in vivo, rats; details: 50 mg/Kg single intra-arterial dose; blood pressure 30 sec after ACh
Method: Female Sprague-Dawley rats (225-250 g body weight) were anesthetized with nembutal (50 mg/Kg, i.p.), a tracheostomy tube was inserted, and the carotid artery and jugular vein cannulated by standard methods using polyethylene tubing (PE 50). Tracey, K. J., et al., 1986, SCIENCE 234, 470-474. Blood pressure was recorded continuously with a pressure transducer and recorder (Model RS-3200, Gould Inc.,). In the experiment shown here, animals received a single sterile intra-arterial dose of either N^G-methyl-L-arginine (NMA; Sigma; 10 mg/Kg), Compound No. 14 (50 mg/Kg), or vehicle (0.4 ml). Acetylcholine (ACh) diluted in LPS-free sterile water was administered via the jugular vein cannula at the doses indicated. The solutions were diluted to produce a constant injectable volume of 1 ml/Kg body weight.
The hypotensive (EDRF) response was measured as the decline in mean arterial blood pressure recorded 30 sec after administration of ACh. The number of animals studied at each dose of acetylcholine was 4-6 for each experimental condition; data are expressed as the mean +s.e.m.

RAW 264.7 cells = assay: Whole cell inhibition assay for urea output; assay type: cell-based, murine; details: for urea % suppression of induced production: γIFN+LPS, 18 hours
Method: RAW 264.7 cells are plated in microculture wells at 1×10^6/ml in RPMI 1640 with 10% FBS and otherwise standard culture conditions and allowed to adhere for 5 hours. They are then activated with 25 U/ml γIFN and 0.1 μg/ml LPS in the presence of test inhibitors. The urea concentration present in the supernatant media, after 18 hours of culture, is determined by a colorimetric blood urea nitrogen diacetylmonoxime assay performed on an aliquot of the culture supernatant (Sigma Chem. Co., St. Louis, Mo.) and inhibition is expressed as the percentage urea compared to that of a parallel control culture treated identically except that the concentration of added inhibitor is zero.
Various concentrations of the test compounds are included in the media of the stimulated RAW 264.7 cells in culture. The concentration of urea and/or nitrite after 18 hours of activated culture is determined and compared to the uninhibited control value obtained from at least one parallel culture. The fractional reduction is calculated for each concentration of inhibitor and the IC50 (concentration giving 50% reduction) is interpolated. Compounds were dissolved in media with mild heat (60° C.). Those with limited solubility were dissolved in base. The concentration of stock solutions of those compounds which were not completely soluble was determined by OD280.

[3] = over the 14 day period, per mouse

SMILES: CC(=NNC(=N)N)c1cc(NC(=O)CCCCCCCCC(=O)Nc2cc(C(C)=NNC(=N)N)cc(C(C)=NNC(=N)N)c2)cc(C(C)=NNC(=N)N)c1.Cl.Cl.Cl.Cl [Compound 14, N,N′-bis(3,5-diacetyl-phenyl)decanediamide tetrakis(amidinohydrazone) tetrahydrochloride]
- URINARY UREA LOSS ([1]; Controls, Treated (non-tumor-bearing), day 2): 193 mg/group
- URINARY UREA LOSS ([1]; Controls, Treated (non-tumor-bearing), day 4): 285 mg/group
- URINARY UREA LOSS ([1]; Controls, Treated (non-tumor-bearing), day 6): 397 mg/group
- URINARY UREA LOSS ([1]; Controls, Treated (non-tumor-bearing), day 7): 247 mg/group
- URINARY UREA LOSS ([1]; Controls, Treated (non-tumor-bearing), day 8): 257 mg/group
- URINARY UREA LOSS ([1]; Controls, Treated (non-tumor-bearing), day 10): 216 mg/group
- URINARY UREA LOSS ([1]; Controls, Treated (non-tumor-bearing), day 11): 239 mg/group
- URINARY UREA LOSS ([1]; Controls, Treated (non-tumor-bearing), day 12): 203 mg/group
- URINARY UREA LOSS ([1]; Controls, Treated (non-tumor-bearing), day 13): 242 mg/group
- URINARY UREA LOSS ([1]; Controls, Treated (non-tumor-bearing), day 14): 157 mg/group
- URINARY UREA LOSS, Sum totals ([1]; Controls, Treated (non-tumor-bearing)): 2436 mg/group
- URINARY UREA LOSS ([1]; Tumor, Treated, day 2 after tumor): 195 mg/group
- URINARY UREA LOSS ([1]; Tumor, Treated, day 4 after tumor): 368 mg/group
- URINARY UREA LOSS ([1]; Tumor, Treated, day 6 after tumor): 295 mg/group
- URINARY UREA LOSS ([1]; Tumor, Treated, day 7 after tumor): 312 mg/group
- URINARY UREA LOSS ([1]; Tumor, Treated, day 8 after tumor): 275 mg/group
- URINARY UREA LOSS ([1]; Tumor, Treated, day 10 after tumor): 206 mg/group
- URINARY UREA LOSS ([1]; Tumor, Treated, day 11 after tumor): 219 mg/group
- URINARY UREA LOSS ([1]; Tumor, Treated, day 12 after tumor): 115 mg/group
- URINARY UREA LOSS ([1]; Tumor, Treated, day 13 after tumor): 201 mg/group
- URINARY UREA LOSS ([1]; Tumor, Treated, day 14 after tumor): 187 mg/group
- URINARY UREA LOSS, Sum totals ([1]; Tumor, Treated): 2373 mg/group
- loss of urea prevented ([1]; over the 14 day period): approximately 200 mg urea/mouse
- nitrogen retained (equivalent of urea loss prevented) [1, 3]: approximately 100 mg
- protein retained (equivalent of urea loss prevented) [1, 3]: ~625 mg
- wet muscle mass retained (equivalent of urea loss prevented) [1, 3]: ~2.7 g
- Diarrhea after LPS (BALB/c mice; 1 mg/Kg i.p. 1.5 hr before LPS): not suppressed
- visible signs of LPS toxicity (BALB/c mice; 1 mg/Kg i.p. 1.5 hr before LPS): markedly suppressed
- LPS-induced lethality (BALB/c mice; 1 mg/Kg i.p. 1.5 hr before LPS 13.75 mg/Kg i.p., 72 hr, p<0.05): reduced lethality
- gross signs of systemic toxicity (BALB/c mice; animals receiving compound alone, 1 mg/Kg i.p.): no gross signs of systemic toxicity
- reduction of TNF accumulation in the culture medium (TNF; 10 μM, L929 cell bioassay, 18 hr): more than 99%
- TNF protein in the medium (Western blot) (TNF; 5 and 25 μM): absence of TNF protein
- acetylcholine-induced EDRF activity in vivo [2]: did not suppress
- urea % suppression of induced production (RAW 264.7 cells; dose 2 μM): 68%
- urea % suppression of induced production (RAW 264.7 cells; dose 10 μM): 78%
- urea % suppression of induced production (RAW 264.7 cells; dose 50 μM): 100%
- urea % suppression of induced production (RAW 264.7 cells; dose 200 μM): 100%
- IC50 (RAW 264.7 cells; interpolated, γIFN+LPS-activated RAW 264.7, 18 hours, read-out: I.C.50 (in parenthesis), inhibition of urea production): 1000 nM
